Source: US20250179077A1, “QUINAZOLINE COMPOUNDS AND USES THEREOF AS INHIBITORS OF MUTANT KRAS PROTEINS” (AMGEN INC., priority 2022, published 2025)
Like-named read-outs stand apart in the source and are kept apart here.

How the values were obtained:
[1] = target: GDP-bound KRAS protein (aa 1-169), containing both G12D and C118A amino acid substitutions (Homo sapiens, UniProt P01116, C118A/G12D); assay: KRAS G12D Coupled Nucleotide Exchange Assay; format: biochemical
Method: KRAS G12D Coupled Nucleotide Exchange Assay
Following compound pre-incubation, purified SOS protein (aa 564-1049) and GTP (Roche 10106399001) were added to the assay wells and incubated for an additional 30 min. […] The assay plates were then read on a PerkinElmer EnVision Multilabel Reader, using AlphaScreen® technology, and data were analyzed using a 4-parameter logistic model to calculate IC50 values.

[2] = tested on: Phosphorylation of ERK1/2 in AsPC-1 cells; assay: Phospho-ERK1/2 MSD Assay; format: cell-based
Outline: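 Phospho-ERK1/2 was quantified by MSD whole-cell lysate immunoassay in RIPA lysates made with protease/phosphatase inhibitors. A 4-parameter logistic model gave IC50.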

[3] = target: His-tagged KRAS G12D protein (Homo sapiens, UniProt P01116, G12D); assay: KRAS G12D TR-FRET Assay; format: binding
Outline: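 His-KRAS G12D (20 nM) was preincubated with titrated compound for 30 min at RT in HEPES pH 7.4 buffer with MgCl2, 10 μM GDP. Biotin-KRPep-2d (20 nM) was then added for 1 h, followed by Eu-anti-His/streptavidin-d2 for 1 h. The 665/615 nm TR-FRET ratio was fitted 4-parameter to give IC50.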

[4] = Homo sapiens, ASPC1, 2 h, read-out: 2 h p-ERK (AsPC-1 cells), IC50, AsPC-1 cells, 2 h compound treatment

Chain of His-tagged KRAS G12D protein (P01116 1-188 isoform P01116-2 G12D): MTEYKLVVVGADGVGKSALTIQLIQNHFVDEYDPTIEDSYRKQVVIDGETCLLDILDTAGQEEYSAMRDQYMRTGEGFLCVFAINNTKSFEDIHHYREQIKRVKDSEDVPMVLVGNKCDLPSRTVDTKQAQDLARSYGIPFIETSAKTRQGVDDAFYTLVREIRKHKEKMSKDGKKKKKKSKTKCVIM
Chain of GDP-bound KRAS protein (aa 1-169), containing both G12D and C118A amino acid substitutions (P01116 1-169 isoform P01116-2 G12D/C118A): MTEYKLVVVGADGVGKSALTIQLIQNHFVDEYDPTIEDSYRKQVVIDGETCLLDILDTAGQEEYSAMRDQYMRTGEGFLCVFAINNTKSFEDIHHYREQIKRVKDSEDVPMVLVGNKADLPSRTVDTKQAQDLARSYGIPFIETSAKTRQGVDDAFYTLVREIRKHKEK

## CCc1c(F)ccc2cc(O)cc(-c3c(F)cc4c(N5CCC[C@]6(CCO6)C5)nc(OC[C@@]56CCCN5C[C@H](F)C6)nc4c3F)c12 (single isomer, unassigned) [Example 90]
[1]
  IC50: 3 nM
[2]; [4]
  IC50: 7 nM
[3]
  IC50: 5 nM

## CCc1cccc2cc(O)cc(-c3ccc4c(N5CCOCC(C)(O)C5)nc(OC[C@@]56CCCN5C[C@H](F)C6)nc4c3F)c12 (single isomer, unassigned) [Example 30]
[1]
  IC50: 3 nM
[2]; [4]
  IC50: 12 nM
[3]
  IC50: 3 nM

## CCc1c(F)ccc2cc(O)cc(-c3c(F)cc4c(N5CCC[C@]6(CCS(=O)(=O)C6)C5)nc(OC[C@@]56CCCN5C[C@H](F)C6)nc4c3F)c12 (single isomer, unassigned) [Example 94]
[1]
  IC50: 4 nM
[2]; [4]
  IC50: 26 nM
[3]
  IC50: 4 nM

## CCc1c(F)ccc2cc(O)cc(-c3ccc4c(N5CCOCC(C)(O)C5)nc(OC[C@@]56CCCN5C[C@H](F)C6)nc4c3F)c12 (single isomer, unassigned) [Example 29]
[1]
  IC50: 1 nM
[2]; [4]
  IC50: 15 nM
[3]
  IC50: 1 nM

## CCc1c(F)ccc2cc(O)cc(-c3ccc4c(N5CCC[C@]6(CCO6)C5)nc(OC[C@@]56CCCN5C[C@H](F)C6)nc4c3F)c12 (single isomer, unassigned) [Example 76]
[1]
  IC50: 3 nM
[2]; [4]
  IC50: 9 nM
[3]
  IC50: 5 nM

## C/C=C\c1c(Cl)cc2[nH]ncc2c1-c1c(F)cc2c(N3CCC[C@@](C)(O)C3)nc(OC[C@@]34CCCN3C[C@H](F)C4)nc2c1F [Example 119, (3R)-1-(7-(6-Chloro-5-((Z)-prop-1-en-1-yl)-1H-indazol-4-yl)-6,8-difluoro-2-(((2R,7aS)-2-fluorotetrahydro-1H-pyrrolizin-7a(5H)-yl)methoxy)quinazolin-4-yl)-3-methylpiperidin-3-ol]
[1]
  IC50: 11 nM
[2]; Homo sapiens, ASPC1, read-out: 2 h p-ERK (AsPC-1 cells), IC50, AsPC-1 cells, 2 h compound treatment
  IC50: 111 nM
[3]
  IC50: 16 nM

## C/C=C\c1c(Cl)cc2[nH]ncc2c1-c1c(F)cc2c(N3CCC[C@]4(CCO4)C3)nc(OC[C@@]34CCCN3C[C@H](F)C4)nc2c1F (single isomer, unassigned) [Example 113]
[1]
  IC50: 3 nM
[2]; [4]
  IC50: 41 nM
[3]
  IC50: 3 nM

## C#Cc1c(F)ccc2cc(N)cc(-c3ccc4c(N5CCC[C@@](C)(O)C5)nc(OC[C@@]56CCCN5C[C@H](F)C6)nc4c3F)c12 [Example 65, (R)-1-(7-(3-Amino-8-ethynyl-7-fluoronaphthalen-1-yl)-8-fluoro-2-(((2R,7aS)-2-fluorotetrahydro-1H-pyrrolizin-7a(5H)-yl)methoxy)quinazolin-4-yl)-3-methylpiperidin-3-ol]
[1]
  IC50: 6 nM
[2]; [4]
  IC50: 260 nM
[3]
  IC50: 11 nM

## CCc1c(F)ccc2cc(O)cc(-c3ccc4c(N5CC6CC(O)C(C6)C5)nc(OC[C@@]56CCCN5C[C@H](F)C6)nc4c3F)c12 (single isomer, unassigned) [Example 15]
[1]
  IC50: 4 nM
[2]; [4]
  IC50: 297 nM
[3]
  IC50: 4 nM

## CCc1c(F)ccc2cc(O)cc(-c3c(F)cc4c(N5CCOCC(C)(O)C5)nc(OC[C@@]56CCCN5C[C@H](F)C6)nc4c3F)c12 (single isomer, unassigned) [Example 34]
[1]
  IC50: 2 nM
[2]; [4]
  IC50: 2 nM
[3]
  IC50: 2 nM

## CCc1c(F)ccc2cc(N)cc(-c3c(F)cc4c(N5CCOCC(C)(O)C5)nc(OC[C@@]56CCCN5C[C@H](F)C6)nc4c3F)c12 (single isomer, unassigned) [Example 72]
[1]
  IC50: 2 nM
[2]; read-out: 2 h p-ERK (AsPC-1 cells), IC50, AsPC-1 cells, 2 h compound treatment
  IC50: 151 nM
[3]
  IC50: 8 nM

## C[C@@H]1C[C@@H]1c1c(Cl)cc2[nH]ncc2c1-c1c(F)cc2c(N3CCOC[C@@](C)(O)C3)nc(OC[C@@]34CCCN3C[C@H](F)C4)nc2c1F (single isomer, unassigned) [Example 98]
[1]
  IC50: 3 nM
[2]; [4]
  IC50: 28 nM
[3]
  IC50: 7 nM

## C#Cc1c(F)ccc2cc(N)cc(-c3c(F)cc4c(N5CCCC6(CNC(=O)O6)C5)nc(OC[C@@]56CCCN5C[C@H](F)C6)nc4c3F)c12 (stereo partly drawn) [Example 69, 7-(7-(3-Amino-8-ethynyl-7-fluoronaphthalen-1-yl)-6,8-difluoro-2-(((2R,7aS)-2-fluorotetrahydro-1H-pyrrolizin-7a(5H)-yl)methoxy)quinazolin-4-yl)-1-oxa-3,7-diazaspiro[4.5]decan-2-one]
[1]
  IC50: 5 nM
[2]; [4]
  IC50: 175 nM
[3]
  IC50: 11 nM

## CCc1c(F)ccc2cccc(-c3ccc4c(N5CCCC6(CNC(=O)O6)C5)nc(OC[C@@]56CCCN5C[C@H](F)C6)nc4c3F)c12 (stereo partly drawn) [Example 85, 7-(7-(8-Ethyl-7-fluoronaphthalen-1-yl)-8-fluoro-2-(((2R,7aS)-2-fluorotetrahydro-1H-pyrrolizin-7a(5H)-yl)methoxy)quinazolin-4-yl)-1-oxa-3,7-diazaspiro[4.5]decan-2-one]
[1]
  IC50: 7 nM
[2]; [4]
  IC50: 85 nM
[3]
  IC50: 7 nM

## CCc1cccc2cc(O)cc(-c3c(F)cc4c(N5CCC[C@]6(CCO6)C5)nc(OC[C@@]56CCCN5C[C@H](F)C6)nc4c3F)c12 [Example 77, 4-(6,8-Difluoro-2-(((2R,7aS)-2-fluorotetrahydro-1H-pyrrolizin-7a(5H)-yl)methoxy)-4-((S)-1-oxa-6-azaspiro[3.5]nonan-6-yl)quinazolin-7-yl)-5-ethylnaphthalen-2-ol]
[1]
  IC50: 4 nM
[2]; [4]
  IC50: 29 nM
[3]
  IC50: 6 nM

## CCc1c(F)ccc2cc(O)cc(-c3ccc4c(N5CCCC6(CNC(=O)O6)C5)nc(OC[C@@]56CCCN5C[C@H](F)C6)nc4c3F)c12 (stereo partly drawn) [Example 54, 7-(7-(8-Ethyl-7-fluoro-3-hydroxynaphthalen-1-yl)-8-fluoro-2-(((2R,7aS)-2-fluorotetrahydro-1H-pyrrolizin-7a(5H)-yl)methoxy)quinazolin-4-yl)-1-oxa-3,7-diazaspiro[4.5]decan-2-one]
[1]
  IC50: 4 nM
[2]; [4]
  IC50: 23 nM
[3]
  IC50: 3 nM

## CCc1c(F)ccc2cc(O)cc(-c3ccc4c(N5CCCC6(CCO6)C5)nc(OC[C@@]56CCCN5C[C@H](F)C6)nc4c3F)c12 (stereo partly drawn) [Example 40, 5-Ethyl-6-fluoro-4-(8-fluoro-2-(((2R,7aS)-2-fluorotetrahydro-1H-pyrrolizin-7a(5H)-yl)methoxy)-4-(1-oxa-6-azaspiro[3.5]nonan-6-yl)quinazolin-7-yl)naphthalen-2-ol]
[1]
  IC50: 11 nM
[2]; [4]
  IC50: 53 nM
[3]
  IC50: 6 nM

## C#Cc1cccc2cc(O)cc(-c3ccc4c(N5CC6CC(O)C(C6)C5)nc(OC[C@@]56CCCN5C[C@H](F)C6)nc4c3F)c12 (single isomer, unassigned) [Example 16]
[1]
  IC50: 2 nM
[2]; [4]
  IC50: 132 nM
[3]
  IC50: 2 nM

## C/C=C\c1c(Cl)cc2[nH]ncc2c1-c1ccc2c(N3CCCC4(CNC(=O)O4)C3)nc(OC[C@@]34CCCN3C[C@H](F)C4)nc2c1F (stereo partly drawn) [Example 117, 7-(7-(6-Chloro-5-((Z)-prop-1-en-1-yl)-1H-indazol-4-yl)-8-fluoro-2-(((2R,7aS)-2-fluorotetrahydro-1H-pyrrolizin-7a(5H)-yl)methoxy)quinazolin-4-yl)-1-oxa-3,7-diazaspiro[4.5]decan-2-one]
[1]
  IC50: 2 nM
[2]; [4]
  IC50: 74 nM
[3]
  IC50: 3 nM

## C/C=C\c1c(C)cc2[nH]ncc2c1-c1c(F)cc2c(N3CCOC[C@@](C)(O)C3)nc(OC[C@@]34CCCN3C[C@H](F)C4)nc2c1F (single isomer, unassigned) [Example 104]
[1]
  IC50: 1 nM
[2]; [4]
  IC50: 30 nM
[3]
  IC50: 2 nM
